Results from patent US10670605B2, “Cysteine reactive probes and uses thereof” (The Scripps Research Institute, priority 2015, dated 2020).

Columns and labels:
Assay in all cases: Competitive isoTOP-ABPP, cell lysates
Assay type in all cases: binding
CASP8 C360 (Q14790) = CASP8 C360 (Q14790) (Homo sapiens, UniProt Q14790); details: for isoTOP-ABPP reactivity ratio, Q14790_C360: 500 μm; for isoTOP-ABPP ratio Q14790_C360: invitro
EZH2 C503 (Q15910) = EZH2 C503 (Q15910) (Homo sapiens, UniProt Q15910)
USP48 C39 (Q86UV5) = biological target: T1, USP48 C39 (Q86UV5) (Homo sapiens, UniProt Q86UV5)
T1 sequence (Q86UV5 1-1035): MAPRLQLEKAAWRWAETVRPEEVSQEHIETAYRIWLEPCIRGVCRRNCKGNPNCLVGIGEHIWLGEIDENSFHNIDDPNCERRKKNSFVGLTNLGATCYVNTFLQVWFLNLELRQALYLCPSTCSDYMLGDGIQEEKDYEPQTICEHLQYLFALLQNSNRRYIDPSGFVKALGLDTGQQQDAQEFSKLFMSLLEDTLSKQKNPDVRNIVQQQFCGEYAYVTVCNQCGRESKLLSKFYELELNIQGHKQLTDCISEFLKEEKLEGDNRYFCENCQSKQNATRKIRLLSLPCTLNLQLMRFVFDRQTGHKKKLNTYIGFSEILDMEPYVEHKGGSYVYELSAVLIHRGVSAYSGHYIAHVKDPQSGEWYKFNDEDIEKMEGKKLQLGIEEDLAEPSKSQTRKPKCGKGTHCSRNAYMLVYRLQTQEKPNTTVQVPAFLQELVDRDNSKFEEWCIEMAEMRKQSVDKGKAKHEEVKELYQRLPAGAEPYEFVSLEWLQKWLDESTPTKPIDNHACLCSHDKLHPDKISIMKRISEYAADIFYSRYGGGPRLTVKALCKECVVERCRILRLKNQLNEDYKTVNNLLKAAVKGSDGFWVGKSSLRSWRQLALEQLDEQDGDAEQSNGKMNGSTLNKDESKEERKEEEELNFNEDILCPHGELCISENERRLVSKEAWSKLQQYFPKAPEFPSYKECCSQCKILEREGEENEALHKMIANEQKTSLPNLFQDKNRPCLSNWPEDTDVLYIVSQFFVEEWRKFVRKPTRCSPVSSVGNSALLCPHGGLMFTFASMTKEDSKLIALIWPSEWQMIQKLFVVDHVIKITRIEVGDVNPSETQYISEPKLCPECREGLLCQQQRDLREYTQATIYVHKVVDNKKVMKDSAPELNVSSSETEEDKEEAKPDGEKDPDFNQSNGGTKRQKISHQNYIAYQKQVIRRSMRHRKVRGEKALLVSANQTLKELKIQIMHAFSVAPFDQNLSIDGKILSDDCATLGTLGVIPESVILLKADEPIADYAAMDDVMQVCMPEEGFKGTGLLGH

CYR61 C39 (O00622) = biological target: T2, CYR61 C39 (O00622) (Homo sapiens, UniProt O00622); details: for isoTOP-ABPP ratio (reactivity profile), O00622_C39: 500 μm in-vitro ramos_231; for isoTOP-ABPP ratio, O00622_C39: 500 μM, invitro, 231
T2 sequence (O00622 25-381): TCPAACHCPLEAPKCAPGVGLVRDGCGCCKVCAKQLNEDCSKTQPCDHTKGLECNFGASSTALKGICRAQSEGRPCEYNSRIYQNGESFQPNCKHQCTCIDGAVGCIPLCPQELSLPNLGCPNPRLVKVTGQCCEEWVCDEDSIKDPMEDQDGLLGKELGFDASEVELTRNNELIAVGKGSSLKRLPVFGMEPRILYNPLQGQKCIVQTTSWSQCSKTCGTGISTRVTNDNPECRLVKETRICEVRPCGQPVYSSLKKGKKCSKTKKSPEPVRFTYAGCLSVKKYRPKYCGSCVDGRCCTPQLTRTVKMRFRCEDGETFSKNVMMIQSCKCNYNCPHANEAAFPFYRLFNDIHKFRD

PFKFB4 C159 (Q16877) = PFKFB4 C159 (Q16877) (Homo sapiens, UniProt Q16877); details: for isoTOP-ABPP ratio (reactivity profile), Q16877_C159: 500 μm in-vitro ramos; for isoTOP-ABPP ratio, Q16877_C159: 500 μM, invitro
Sequence of PFKFB4 C159 (Q16877) (Q16877 whole entry): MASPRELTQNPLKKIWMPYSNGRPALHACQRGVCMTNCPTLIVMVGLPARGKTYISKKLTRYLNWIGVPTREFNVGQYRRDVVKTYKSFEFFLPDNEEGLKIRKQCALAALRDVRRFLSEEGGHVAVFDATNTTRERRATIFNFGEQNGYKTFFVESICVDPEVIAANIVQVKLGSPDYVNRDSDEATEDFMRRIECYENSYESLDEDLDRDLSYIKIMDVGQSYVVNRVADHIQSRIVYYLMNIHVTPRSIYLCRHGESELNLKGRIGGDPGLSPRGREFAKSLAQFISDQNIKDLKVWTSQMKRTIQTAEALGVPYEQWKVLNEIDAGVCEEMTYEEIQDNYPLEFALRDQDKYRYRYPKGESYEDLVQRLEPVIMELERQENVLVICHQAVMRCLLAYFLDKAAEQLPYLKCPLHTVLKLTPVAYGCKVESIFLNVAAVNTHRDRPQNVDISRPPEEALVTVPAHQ

Sequence of EZH2 C503 (Q15910) (Q15910 whole entry): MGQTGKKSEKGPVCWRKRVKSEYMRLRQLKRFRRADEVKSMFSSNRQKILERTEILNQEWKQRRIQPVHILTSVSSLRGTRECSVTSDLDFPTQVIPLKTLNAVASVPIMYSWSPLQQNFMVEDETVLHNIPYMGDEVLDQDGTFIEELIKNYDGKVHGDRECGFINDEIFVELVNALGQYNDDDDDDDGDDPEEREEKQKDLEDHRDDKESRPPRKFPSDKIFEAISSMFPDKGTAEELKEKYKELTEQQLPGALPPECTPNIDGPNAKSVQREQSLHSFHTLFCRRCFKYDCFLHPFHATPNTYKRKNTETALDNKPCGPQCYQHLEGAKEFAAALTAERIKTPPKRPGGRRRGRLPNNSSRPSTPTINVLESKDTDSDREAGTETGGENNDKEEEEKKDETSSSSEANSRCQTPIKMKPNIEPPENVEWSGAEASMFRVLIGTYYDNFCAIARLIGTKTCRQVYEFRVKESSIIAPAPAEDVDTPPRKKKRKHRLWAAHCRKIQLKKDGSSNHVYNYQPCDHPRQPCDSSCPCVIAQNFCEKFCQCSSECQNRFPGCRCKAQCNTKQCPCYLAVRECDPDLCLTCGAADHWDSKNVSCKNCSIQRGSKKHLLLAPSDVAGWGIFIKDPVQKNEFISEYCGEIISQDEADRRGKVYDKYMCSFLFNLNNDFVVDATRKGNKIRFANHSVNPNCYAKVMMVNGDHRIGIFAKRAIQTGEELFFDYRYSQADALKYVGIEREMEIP
Sequence of EZH2 C503 (Q15910) (O75530 whole entry partner): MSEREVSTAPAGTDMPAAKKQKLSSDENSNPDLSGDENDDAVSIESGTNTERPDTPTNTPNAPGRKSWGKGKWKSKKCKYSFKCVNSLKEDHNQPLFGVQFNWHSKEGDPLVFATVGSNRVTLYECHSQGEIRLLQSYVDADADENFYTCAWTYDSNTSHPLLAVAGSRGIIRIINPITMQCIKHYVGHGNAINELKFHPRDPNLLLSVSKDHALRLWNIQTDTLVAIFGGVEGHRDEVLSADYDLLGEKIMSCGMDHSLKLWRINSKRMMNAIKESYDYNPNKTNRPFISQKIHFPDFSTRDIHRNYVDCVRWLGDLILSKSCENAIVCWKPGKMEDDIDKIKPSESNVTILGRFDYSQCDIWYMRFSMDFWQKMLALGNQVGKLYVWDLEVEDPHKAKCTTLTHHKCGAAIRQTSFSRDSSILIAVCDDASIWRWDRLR
Sequence of EZH2 C503 (Q15910) (Q15022 whole entry partner): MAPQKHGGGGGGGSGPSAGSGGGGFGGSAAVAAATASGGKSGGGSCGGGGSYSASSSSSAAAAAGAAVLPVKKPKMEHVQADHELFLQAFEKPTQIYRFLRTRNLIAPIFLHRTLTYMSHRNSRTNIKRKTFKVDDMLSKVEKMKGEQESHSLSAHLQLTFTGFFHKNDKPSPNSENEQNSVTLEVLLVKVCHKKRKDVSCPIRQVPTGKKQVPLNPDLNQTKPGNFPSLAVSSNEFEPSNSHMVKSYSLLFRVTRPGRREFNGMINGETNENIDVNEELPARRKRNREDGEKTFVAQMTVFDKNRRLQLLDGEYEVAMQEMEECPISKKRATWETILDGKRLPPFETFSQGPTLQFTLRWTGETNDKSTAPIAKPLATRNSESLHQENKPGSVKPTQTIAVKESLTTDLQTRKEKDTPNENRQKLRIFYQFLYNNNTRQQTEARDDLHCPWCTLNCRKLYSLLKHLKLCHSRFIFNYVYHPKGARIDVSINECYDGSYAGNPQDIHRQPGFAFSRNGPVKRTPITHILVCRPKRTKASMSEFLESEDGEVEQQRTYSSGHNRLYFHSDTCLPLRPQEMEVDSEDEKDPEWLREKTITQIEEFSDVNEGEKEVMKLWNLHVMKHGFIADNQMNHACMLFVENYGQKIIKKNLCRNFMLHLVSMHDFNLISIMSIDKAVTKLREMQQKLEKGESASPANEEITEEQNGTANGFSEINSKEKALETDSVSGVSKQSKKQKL
Sequence of CASP8 C360 (Q14790) (Q14790 whole entry): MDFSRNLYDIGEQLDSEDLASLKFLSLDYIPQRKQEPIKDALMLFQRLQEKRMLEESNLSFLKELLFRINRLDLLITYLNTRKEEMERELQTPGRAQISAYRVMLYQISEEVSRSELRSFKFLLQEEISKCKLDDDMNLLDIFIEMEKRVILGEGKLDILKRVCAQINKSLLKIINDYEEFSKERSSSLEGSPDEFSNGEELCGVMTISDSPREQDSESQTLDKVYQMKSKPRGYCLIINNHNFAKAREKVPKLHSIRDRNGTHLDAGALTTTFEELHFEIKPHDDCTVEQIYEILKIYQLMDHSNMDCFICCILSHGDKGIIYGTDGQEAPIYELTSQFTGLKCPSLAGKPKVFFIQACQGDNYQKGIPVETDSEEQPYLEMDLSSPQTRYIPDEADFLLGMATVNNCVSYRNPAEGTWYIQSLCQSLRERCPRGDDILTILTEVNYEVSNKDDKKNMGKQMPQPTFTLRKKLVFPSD

Structure (SMILES): COc1ccc2c(c1)CCCN2C(=O)CCl [compound 2]
- R value (DMSO/fragment) (CASP8 C360 (Q14790); 500 μM, in vitro, MDA-MB-231): 9.8
- R value (DMSO/fragment) (EZH2 C503 (Q15910); 500 μM, invitro, ramos): 2.8
- R value (DMSO/fragment) (USP48 C39 (Q86UV5); 500 μM, invitro, ramos): 7.1

Structure (SMILES): N#C/C(=C\c1cc(C(F)(F)F)cc(C(F)(F)F)c1)C(N)=O [compound 23]
- isoTOP-ABPP ratio (reactivity profile), Q14790_C360 (CASP8 C360 (Q14790); 500 μm in-vitro ramos): 1.4
- isoTOP-ABPP ratio (reactivity profile), Q14790_C360 (CASP8 C360 (Q14790); 500 μm in-vitro ramos_231): 1.4
- isoTOP-ABPP ratio (reactivity profile), O00622_C39 (CYR61 C39 (O00622)): 4.4
- isoTOP-ABPP ratio (reactivity profile), Q15910_C503 (EZH2 C503 (Q15910); 500 μm in-vitro ramos): 2.0
- isoTOP-ABPP ratio (reactivity profile), Q16877_C159 (PFKFB4 C159 (Q16877)): 1.0
- isoTOP-ABPP ratio (reactivity profile), Q86UV5_C39 (USP48 C39 (Q86UV5); 500 μm in-vitro ramos): 1.3

Structure (SMILES): C=CC(=O)Nc1cc(F)c(N2CCN(C(=O)OC(C)(C)C)CC2)c(F)c1 [compound 38]
- isoTOP-ABPP reactivity ratio, Q14790_C360 (CASP8 C360 (Q14790); in-vitro_ramos): 4.1
- isoTOP-ABPP reactivity ratio, Q14790_C360 (CASP8 C360 (Q14790); in-vitro_ramos_231): 1.0
- isoTOP-ABPP reactivity ratio, O00622_C39 (CYR61 C39 (O00622); 500 μm, in-vitro_ramos_231): 0.8
- isoTOP-ABPP reactivity ratio, Q86UV5_C39 (USP48 C39 (Q86UV5); 500 μm, in-vitro_ramos_231): 3.7

Structure (SMILES): C=CC(=O)Nc1cc(C)c(Br)cc1C [compound 40]
- isoTOP-ABPP reactivity ratio, Q16877_C159 (PFKFB4 C159 (Q16877); 500 μm, in-vitro_ramos): 1.2
- isoTOP-ABPP reactivity ratio, Q86UV5_C39 (USP48 C39 (Q86UV5); 500 μm, in-vitro_ramos): 1.6

Structure (SMILES): C=CC(=O)N(Cc1cccnc1)c1cc(C(F)(F)F)cc(C(F)(F)F)c1 [compound 31]
- isoTOP-ABPP reactivity ratio, O00622_C39 (CYR61 C39 (O00622); 500 μm, in-vitro_ramos_231): 1.2

Structure (SMILES): Cn1cc(S(=O)(=O)N2CCOCC2)cc1C(=O)NC(=O)CCl [compound 11]
- isoTOP-ABPP ratio Q14790_C360 (CASP8 C360 (Q14790); 500 μM, 231): 20.0
- isoTOP-ABPP ratio Q14790_C360 (CASP8 C360 (Q14790); 500 μM, ramos): 20.0
- isoTOP-ABPP ratio, O00622_C39 (CYR61 C39 (O00622)): 9.6
- isoTOP-ABPP ratio, Q15910_C503 (EZH2 C503 (Q15910); 500 μM, invitro, ramos): 1.3
- isoTOP-ABPP ratio, Q16877_C159 (PFKFB4 C159 (Q16877); ramos): 0.6
- isoTOP-ABPP ratio, Q86UV5_C39 (USP48 C39 (Q86UV5); 500 μM, invitro, ramos): 1.0

Structure (SMILES): O=C(CCl)NCCc1c[nH]c2ccccc12 [compound 13]
- isoTOP-ABPP ratio, O00622_C39 (CYR61 C39 (O00622)): 1.2
- isoTOP-ABPP ratio, Q15910_C503 (EZH2 C503 (Q15910); 500 μM, invitro, ramos): 0.8
- isoTOP-ABPP ratio, Q16877_C159 (PFKFB4 C159 (Q16877); 231): 0.9
- isoTOP-ABPP ratio, Q86UV5_C39 (USP48 C39 (Q86UV5); 500 μM, invitro, 231): 0.8
- isoTOP-ABPP ratio, Q86UV5_C39 (USP48 C39 (Q86UV5); 500 μM, invitro, ramos): 0.6

Structure (SMILES): O=C(CCl)N1CCN(CC(=O)N2CCOCC2)CC1 [compound 29]
- isoTOP-ABPP ratio (reactivity profile), Q15910_C503 (EZH2 C503 (Q15910); 500 μm in-vitro ramos_231): 1.4
- isoTOP-ABPP ratio (reactivity profile), Q86UV5_C39 (USP48 C39 (Q86UV5); 500 μm in-vitro ramos_231): 1.2

Structure (SMILES): CC(Cl)C(=O)Nc1cc(C(F)(F)F)cc(C(F)(F)F)c1 (stereo not shown) [compound 25]
- isoTOP-ABPP ratio (reactivity profile), Q14790_C360 (CASP8 C360 (Q14790); 500 μm in-vitro ramos_231): 1.0
- isoTOP-ABPP ratio (reactivity profile), O00622_C39 (CYR61 C39 (O00622)): 1.0
- isoTOP-ABPP ratio (reactivity profile), Q15910_C503 (EZH2 C503 (Q15910); 500 μm in-vitro ramos_231): 0.8
- isoTOP-ABPP ratio (reactivity profile), Q86UV5_C39 (USP48 C39 (Q86UV5); 500 μm in-vitro ramos_231): 1.0

Structure (SMILES): CC(Br)C(=O)Nc1cc(C(F)(F)F)cc(C(F)(F)F)c1 (stereo not shown) [compound 24]
- isoTOP-ABPP ratio (reactivity profile), Q14790_C360 (CASP8 C360 (Q14790); 500 μm in-vitro ramos): 1.4
- isoTOP-ABPP ratio (reactivity profile), Q15910_C503 (EZH2 C503 (Q15910); 500 μm in-vitro ramos): 1.3
- isoTOP-ABPP ratio (reactivity profile), Q86UV5_C39 (USP48 C39 (Q86UV5); 500 μm in-vitro ramos): 1.0

Structure (SMILES): CNS(=O)(=O)C=Cc1ccc2c(ccn2Cc2ccccc2)c1 [compound 6]
- isoTOP-ABPP ratio, Q15910_C503 (EZH2 C503 (Q15910); 500 μM, invitro, 231): 1.8

Structure (SMILES): O=C(CCl)NC12CC3CC(CC(C3)C1)C2 [compound 21]
- isoTOP-ABPP ratio (reactivity profile), Q14790_C360 (CASP8 C360 (Q14790); 500 μm in-vitro ramos): 1.9
- isoTOP-ABPP ratio (reactivity profile), Q14790_C360 (CASP8 C360 (Q14790); 500 μm in-vitro ramos_231): 1.9
- isoTOP-ABPP ratio (reactivity profile), Q16877_C159 (PFKFB4 C159 (Q16877)): 1.2
- isoTOP-ABPP ratio (reactivity profile), Q86UV5_C39 (USP48 C39 (Q86UV5); 500 μm in-vitro ramos): 1.2
- isoTOP-ABPP ratio (reactivity profile), Q86UV5_C39 (USP48 C39 (Q86UV5); 500 μm in-vitro ramos_231): 20.0

Structure (SMILES): O=C(CCl)N1CCc2cc(Br)ccc21 [compound 50]
- isoTOP-ABPP reactivity profile ratio, O00622_C39 (CYR61 C39 (O00622); 500 μm, in-vitro_ramos_231): 2.3

Structure (SMILES): O=C(CCl)Nc1ccc(-c2ccccc2)cc1 [compound 52]
- isoTOP-ABPP reactivity profile ratio, Q15910_C503 (EZH2 C503 (Q15910); 500 μm, in-vitro_ramos_231): 0.9
- isoTOP-ABPP reactivity profile ratio, Q86UV5_C39 (USP48 C39 (Q86UV5); 500 μm, in-vitro_ramos_231): 0.9

Structure (SMILES): O=C(CCl)N1CCC(C(O)(c2ccccc2)c2ccccc2)CC1 [compound 20]
- isoTOP-ABPP ratio (reactivity profile), Q14790_C360 (CASP8 C360 (Q14790); 500 μm in-vitro ramos): 1.5
- isoTOP-ABPP ratio (reactivity profile), Q14790_C360 (CASP8 C360 (Q14790); 500 μm in-vitro ramos_231): 1.9
- isoTOP-ABPP ratio (reactivity profile), Q16877_C159 (PFKFB4 C159 (Q16877)): 1.0
- isoTOP-ABPP ratio (reactivity profile), Q86UV5_C39 (USP48 C39 (Q86UV5); 500 μm in-vitro ramos): 1.8
- isoTOP-ABPP ratio (reactivity profile), Q86UV5_C39 (USP48 C39 (Q86UV5); 500 μm in-vitro ramos_231): 1.1

Structure (SMILES): CCN(CC)c1ccc(S(N)(=O)=O)cc1NC(=O)CCl [compound 30]
- isoTOP-ABPP ratio (reactivity profile), Q14790_C360 (CASP8 C360 (Q14790); 500 μm in-vitro ramos): 2.0
- isoTOP-ABPP reactivity ratio, Q14790_C360 (CASP8 C360 (Q14790); in-vitro_ramos): 5.2
